Experimental findings from patent publication US12304912B2, “Fused bicyclic RAF inhibitors and methods for use thereof” (Jazz Pharmaceuticals Ireland Limited, priority 2020, dated 2025) are described below.

Data set [1] has as its system BRAF monomers in A375 cells. The experiment in a line: A375 AlphaLISA SureFire pERK1/2 cellular assay (monomer). In kind it is cell-based. The settings on record: Homo sapiens, A-375; A375 cells, 1 hr; read-out: pERK A375 (1 hr) pIC50 (converted). An outline of the steps: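 BRAF^V600E A375 melanoma cells seeded at 30,000/well in DMEM with 10% FBS, dosed without medium exchange in a 10-point series from 10 μM at 1/2-log steps, 1 h at 37 °C. Phospho-ERK1/2 (Thr202/Tyr204) measured in lysates by AlphaLISA SureFire; absolute IC50 relative to DMSO control.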
On the technique in general: In Alpha technology, singlet oxygen from a donor bead excites a nearby acceptor bead.

Data set [2] concerns constitutive ERK phosphorylation in HCT-116 cells. The experiment in a line: HCT-116 AlphaLISA SureFire pERK1/2 cellular assay. In kind it is cell-based, human. The settings on record: Homo sapiens, HCT-116; HCT116 cells, 2 hr, Abs; read-out: pERK HCT116 (2 hr) Abs pIC50 (converted). An outline of the steps:
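Cells seeded overnight (30,000/well for 2 h, 15,000/well for 24 h), then dosed in 1% FBS medium with a 10-point series from 1 μM top, 1/3 log steps, for 2 or 24 h at 37 °C. Lysates read by AlphaLISA for Thr202/Tyr204 pERK1/2; absolute IC50 versus DMSO control.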

Data set [3] is described as follows: Plasma protein binding assay, mouse plasma (mPPB). The note with it: 5 μM, equilibrium dialysis 4 hours at 37° C. In kind it is in vitro ADME. The method, boiled down: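 Equilibrium dialysis of 5 μM compound in previously frozen human or mouse plasma against phosphate buffer, 4 h at 37 °C. Both chambers quantified by LC-MS/MS; % free = (1−((PC−PF)/PC))×100.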
(In general: In equilibrium dialysis free small molecules cross a membrane that holds back macromolecules.)

As for `Cn1nc(C(F)(F)F)cc1-c1c[nH]c(C2COc3ccc(Oc4ccnc5c4CCC(=O)N5)cc3C2)n1` (stereo not drawn) [Compound 107, 5-[3-[4-[2-methyl-5-(trifluoromethyl)pyrazol-3-yl]-1H-imidazol-2-yl]chroman-6-yl]oxy-3,4-dihydro-1H-1,8-naphthyridin-2-one], the IC50 in data set [1] is 178 nM; in data set [2], 191 nM. For the same molecule, in data set [3], the “mPPB (% free)” value worked out at 0.3 % free.
As to `Cn1ncc2ccc(-c3c[nH]c(C4COc5ccc(Oc6ccnc7c6CCC(=O)N7)cc5C4)n3)cc21` (stereo not drawn) [Compound 130, 5-[3-[4-(1-methylindazol-6-yl)-1H-imidazol-2-yl]chroman-6-yl]oxy-3,4-dihydro-1H-1,8-naphthyridin-2-one], the IC50 in data set [1] was 1000 nM; in data set [2] it was 141 nM. The “mPPB (% free)” value in data set [3] is on record as 0.2 % free.
With `CN1CCN(CC(=O)Nc2cc(Oc3ccc4c(c3)CC(c3nc(-c5ccccc5)c[nH]3)CO4)ccn2)CC1` (stereo not drawn) [Compound 146, 2-(4-methylpiperazin-1-yl)-N-[4-[3-(4-phenyl-1H-imidazol-2-yl)chroman-6-yl]oxy-2-pyridyl]acetamide], the figures for the IC50 in data set [1] and in data set [2] were 372 nM and 178 nM, respectively. The “mPPB (% free)” value in data set [3] is reported as 0.7 % free.
As for `O=C(CN1CC(O)C1)Nc1cc(Oc2ccc3c(c2)CC(c2nc(-c4ccccc4)c[nH]2)CO3)ccn1` (stereo not drawn) [Compound 153], the IC50 in data set [1] is 501 nM; in data set [2], 200 nM. The “mPPB (% free)” value in data set [3] is given as 0.6 % free.
